Data published in PMC7400437, “Synthesis and Evaluation of the Antibacterial Activities of 13-Substituted Berberine Derivatives” (Antibiotics, 2020).

Tests used:
[1] = test system: P. aeruginosa; assay: MIC, antimicrobial activity assay; type: cell-based, Pseudomonas aeruginosa (ATCC 9027); conditions: Pseudomonas aeruginosa; Table 1 first screening; read-out: Minimal Inhibitory Concentration (MIC) P. aeruginosa
[2] = test system: BEAS (human airway epithelial cells); assay: Cytotoxic assay on human cells (resazurin); type: cell-based; conditions: Epithelial cell, 48 h, means +/−SD, read-out: Inhibitory Concentration 50 (IC50) on cell viability, BEAS
Description: (§1) The toxicity of berberine and berberine’s derivatives on human cells was evaluated using resazurin assay as previously described. Human cells used were BEAS (ATCC CRL-9609), Caco2 (ATCC HTB-37) and HepG2 (ATCC HB-8065) corresponding respectively to human airway epithelial cells, intestinal epithelial cells and liver cells. Cells were cultured in Dulbecco’s modified essential medium (DMEM) supplemented with 10% fetal bovine serum (FBS), 1% L-glutamine and 1% antibiotics (Thermo Fisher Scientific, Illkirch-Graffenstaden, France). Cells were routinely grown on 25 cm^2 flasks and maintained in a 5% CO2 incubator at 37 °C. For toxicity assay, cells were detached using trypsin–EDTA solution (Thermo Fisher Scientific), counted using Mallasez counting chamber and seeded into 96-well cell culture plates (Greiner bio-One, Dominique Dutscher, Brumath, France) at approximately 10,000 cells per well. The cells were left to grow for 48–72 h at 37 °C in a 5% CO2 incubator until they reached confluence. Media from wells was then aspirated and cells were treated with 100 µL of culture media containing increasing concentrations of berberine or berberine’s derivatives obtained by serial dilution (from 0 to 50 µM, 1:2 dilution), DMSO (0.5% DMSO final concentration) was used as negative control. After 48 h incubation at 37 °C in a 5% CO2 incubator, cell viability was evaluated using resazurin based in vitro toxicity assay kit (Sigma-Aldrich) following manufacturer’s instructions. Briefly, cell wells were emptied, and cells were treated with 100 µL of resazurin diluted 1:10 in sterile PBS containing calcium and magnesium (PBS^++, pH 7.4). After 4 h incubation at 37 °C, fluorescence intensity (excitation wavelength of 530 nm/emission wavelength of 590 nm) was measured using Synergy Mx microplate reader (Biotek). The fluorescence values were normalized by the controls (DMSO treated cells) and expressed as percent viability. The IC50 values of berberine and berberine’s derivatives on cell viability (i.e., the concentration of derivative causing a reduction of 50% of the cell viability) were calculated using GraphPad® Prism 7 software (San Diego, CA, USA). t-Test and two ways ANOVA analyses were used to address the significant differences between mean values with significance set at p < 0.05.

[3] = test system: Caco2 (human intestinal epithelial cells); assay: Cytotoxic assay on human cells (resazurin); type: cell-based; conditions: Homo sapiens, Caco-2, 48 h, read-out: Inhibitory Concentration 50 (IC50) on cell viability, Caco2
Description: as §1

[4] = test system: HepG2 (human liver cells); assay: Cytotoxic assay on human cells (resazurin); type: cell-based; conditions: HepG2, 48 h, read-out: Inhibitory Concentration 50 (IC50) on cell viability, HEPG2
Description: as §1

[5] = test system: S. aureus; assay: MIC, antimicrobial activity assay; type: cell-based, Staphylococcus aureus (ATCC 6538P); conditions: Staphylococcus aureus; Table 1 first screening; read-out: Minimal Inhibitory Concentration (MIC) S. aureus
[6] = test system: E. coli; assay: MIC, antimicrobial activity assay; type: cell-based, Escherichia coli (ATCC 8739); conditions: Escherichia coli; Table 1 first screening; read-out: Minimal Inhibitory Concentration (MIC) E. coli
[7] = test system: M. smegmatis; assay: microbe, parasite or virus in culture; type: cell-based, Mycobacterium smegmatis (mc2155, ATCC 700084); conditions: Mycolicibacterium smegmatis, 72 h, read-out: Minimal Inhibitory Concentration (MIC) M. smegmatis
[8] = test system: B. subtilis; assay: MIC, antimicrobial activity assay; type: cell-based, Bacillus subtilis (ATCC 6633); conditions: Bacillus subtilis; Table 1 first screening; read-out: Minimal Inhibitory Concentration (MIC) B. subtilis
[9] = test system: C. albicans; assay: MIC, antifungal activity assay; type: cell-based, Candida albicans (DSM 10697); conditions: Candida albicans; Table 1 first screening; 35 °C, 24 h; read-out: Minimal Inhibitory Concentration (MIC) C. albicans

| SMILES | MIC [1] [µM] | IC50 [2] [µM] | IC50 [3] [µM] | IC50 [4] [µM] | MIC [5] [µM] | MIC [6] [µM] | MIC [7] [µM] | MIC [8] [µM] | MIC [9] [µM] |
| --- | --- | --- | --- | --- | --- | --- | --- | --- | --- |
| COc1ccc2c(O)c3[n+](cc2c1OC)CCc1cc2c(cc1-3)OCO2 [Compound 2, 13-hydroxyberberine] | > 100 | > 50 | 34.2 ± 3.8 | > 50 | 12.5 to 25 | > 100 | 25 | 50 | > 100 |
| C=Cc1ccc(Cc2c3[n+](cc4c(OC)c(OC)ccc24)CCc2cc4c(cc2-3)OCO4)cc1 [Compound 9, 13-(4-Ethenylbenzyl)Berberine] | > 100 | 12.8 ± 1.6 | 24.8 ± 3.6 | > 50 | 3.12 | > 100 | 6.25 | 12.5 | 50 |
| COc1ccc2c(Cc3ccc(CN)cc3)c3[n+](cc2c1OC)CCc1cc2c(cc1-3)OCO2 [Compound 11, 13-(4-Aminomethylbenzyl)Berberine] | > 100 | > 50 | > 50 | > 50 | 25 | > 100 | 50 | 25 | 100 |
| COc1ccc2c(Cc3ccc4c(c3)OCO4)c3[n+](cc2c1OC)CCc1cc2c(cc1-3)OCO2 [Compound 13, 13-[(2H-1,3-Benzodioxol-5-yl)methyl]Berberine] | > 100 | 16.9 ± 1.5 | 31.4 ± 3.8 | > 50 | 6.25 to 12.5 | > 100 | 12.5 | 25 | 50 |
| COc1ccc(Cc2c3[n+](cc4c(OC)c(OC)ccc24)CCc2cc4c(cc2-3)OCO4)c(OC)c1OC [Compound 14, 13[(2,3,4-Trimethoxyphenyl)methyl]Berberine] | > 100 | > 50 | > 50 | > 50 | 25 | > 100 | 25 | 50 | > 100 |
| COc1ccc2c(Cc3ccc(-c4nc5ccccc5s4)cc3)c3[n+](cc2c1OC)CCc1cc2c(cc1-3)OCO2 [Compound 19] | > 100 | 4.92 ± 0.6 | 12 ± 1.3 | 31.2 ± 7.1 | 1.5 to 3.12 | > 100 | 12.5 | 1.5 | 6.25 |
